Experimental data: patent publication EP0860438B1, “Fluorine-containing diphenyl acrylamide antimicrobial agents” (Shenyang Research Institute of Chemical Industry, priority 1997, dated 1998)
Read-outs that look alike come from different tables or passages of the source.

How the values were obtained:
[1] = test system: cucumber downy mildew; assay: Indoor comparison with currently available antimicrobial agents, therapeutic effect (Example 12); format: in vivo, Pseudoperonospora cubensis; conditions: seedling of yellow melon
[2] = test system: cucumber downy mildew; assay: Indoor comparison with currently available antimicrobial agents, protective effect (Example 12); format: in vivo, Pseudoperonospora cubensis; conditions: seedling of yellow melon
[3] = test system: cucumber downy mildew (Pseudoperonospora cubensis); assay: Test for inhibition of spore germination in cucumber downy mildew; format: cell-based
[4] = test system: Downy mildew; assay: Indoor comparison with Dimethomorph, test for protection (Example 11); conditions: seedling of yellow melon, 2 - 3 leaf stage
Description: (§1) Test was divided into test for therapy and test for protection. Concentration of two chemicals (Compound 1 and Dimethomorph) was set at 150 and 100 ppm, and each treatment was run three times. A blank control was set separately. Samples were selected from seedling of yellow melon in the 2 - 3 leaf stage. Method of treatment and study was the same as before.

[5] = test system: late blight of tomato; format: in vivo; conditions: three treatments, examined on June 20, field
[6] = test system: cucumber downy mildew; assay: Indoor therapeutic test against cucumber downy mildew (Example 10); conditions: treated 24 hours after inoculation, examined a week later
Description: (§2) Concentration of test Compound 1 (content was 9% in emulsion oil) was set at 250, 200, 150, 100 and 75 ppm. Dimethomorph (American Cyanamid) 150 ppm was used as the control. Healthy seedling of yellow melon was selected for use, and test was run three times. For protection test, treatment was carried out on September 17, 1995, and they were inoculated 24 hours later. For the therapeutic test, inoculation was made on September 18, and then they were treated 24 hours later. Examination was made a week later, and results were recorded in 9 grades, and disease index and protection effect were calculated.

[7] = test system: cucumber downy mildew; assay: Field therapeutic test against cucumber downy mildew (Example 14); format: in vivo, Pseudoperonospora cubensis; conditions: three treatments, examined on June 3
Description: Therapeutic effect (field test).
Field therapeutic test of the compound 1 against cucumber downy mildew was carried out in a farm at a village near Shenyang City.
Concentration of the Compound 1 (20% wettable powder) was set at 100, 200 and 300 ppm. Chlor 1500 ppm was used as the control, and blank control was set separately also. Each treatment was repeated three times. First treatment was made on May 13, second treatment was made on May 20, and third treatment was made on May 27, and protective effect was examined on June 3.

[8] = test system: cucumber downy mildew; assay: Field protection test against cucumber downy mildew (Example 13); format: in vivo, Pseudoperonospora cubensis; parameters: Disease index: scale not given here
Description: Protective action (field test).
Field protection test against cucumber downy mildew was carried out in the farm at a village near Shenyang City. Concentration of the Compound 1 (20% wettable powder) was set at 200, 400 and 600 ppm. Concentration of Previcur (66.5% hydrate ) which was used as the control, was set at 800, 1000 and 1200 ppm. And, a blank control was set separately also. Each treatment was run 4 times. Samples were taken for examination. […] First examination of protective effect was made on April 22. The second examination of protective effect was made on April 29, and the third examinatnion of protective effect was made on May 5.

[9] = test system: Downy mildew; assay: Indoor comparison with Dimethomorph, test for therapy (Example 11); conditions: seedling of yellow melon, 2 - 3 leaf stage
Description: as §1

[10] = test system: cucumber downy mildew; assay: Indoor protection test against cucumber downy mildew (Example 10); conditions: inoculated 24 hours after treatment, examined a week later
Description: as §2

[11] = Pseudoperonospora cubensis, 24 h, read-out: % Inhibition of spore

With `[Al]#[P]` [Aluminium phosphide, aluminium phosphide, reference compound] the “Therapeutic effect (%)control” value ([1]; 1000 ppm) was 40.0% and the “Protective effect/preventive (%)control” value ([2]; 1000 ppm) was 75.0%.

With `N#Cc1c(Cl)c(Cl)c(Cl)c(C#N)c1Cl` [Chlorothalonil, reference compound] the “Therapeutic effect (%)control” value ([1]; 1000 ppm) was 75.0% and the “Protective effect/preventive (%)control” value ([2]; 1000 ppm) was 90.0%.

With `COc1ccc(/C(=C\C(=O)N2CCOCC2)c2ccc(F)cc2)cc1OC` [Compound 1] the “% Spore germination” value ([3]; 25 ppm, 25°C, after 24 hours) was 23.1%, the “Number of spores germinated” value ([3]; 25 ppm, 25°C, after 24 hours) was 198 and the “Number of ungerminated spores” value ([3]; 25 ppm, 25°C, after 24 hours) was 660. The “% Spore germination” value ([3]; 50 ppm, 25°C, after 24 hours) was 4.3%, the “Number of spores germinated” value ([3]; 50 ppm, 25°C, after 24 hours) was 45 and the “Number of ungerminated spores” value ([3]; 50 ppm, 25°C, after 24 hours) was 990. The “% Spore germination” value ([3]; 100 ppm, 25°C, after 24 hours) was 1.6%, the “Number of spores germinated” value ([3]; 100 ppm, 25°C, after 24 hours) was 17 and the “Number of ungerminated spores” value ([3]; 100 ppm, 25°C, after 24 hours) was 1044. For the same compound, the inhibition at 25 ppm [3, 11] was 65.2%, the inhibition at 50 ppm [3, 11] was 93.5% and the inhibition at 100 ppm [3, 11] was 97.6%. The “Protective effect (%)control” value ([4]; 100 ppm) was 93%, the “Protective effect Disease index” value ([4]; 100 ppm) was 0.07 and the “Protective effect (%)control” value ([4]; 150 ppm) was 95%. The “Protective effect Disease index” value ([4]; 150 ppm) was 0.05, the Disease index ([5]; 200 ppm) was 5.56 and the “Protective (%)control” value ([5]; 200 ppm) was 80.9%. The Disease index ([5]; 400 ppm) was 2.59, the “Protective (%)control” value ([5]; 400 ppm) was 91.1% and the Disease index ([5]; 600 ppm) was 2.22. For the same compound, the “Protective (%)control” value ([5]; 600 ppm) was 94.9%, the “Therapeutic effect (%)control” value ([1]; 25 ppm) was 0.0% and the “Therapeutic effect (%)control” value ([1]; 50 ppm) was 40.0%. For the same compound, the “Therapeutic effect (%)control” value ([1]; 75 ppm) was 60.0%, the “Therapeutic effect (%)control” value ([1]; 100 ppm) was 75.0% and the “Therapeutic effect (%)control” value ([1]; 200 ppm) was 90.0%. The “Protective effect/preventive (%)control” value ([2]; 25 ppm) was 40.0%, the “Protective effect/preventive (%)control” value ([2]; 50 ppm) was 60.0% and the “Protective effect/preventive (%)control” value ([2]; 75 ppm) was 75.0%. The “Protective effect/preventive (%)control” value ([2]; 100 ppm) was 90.0%, the “Protective effect/preventive (%)control” value ([2]; 200 ppm) was 100.0% and the “Therapeutic (%)control” value ([6]; 75 ppm) was 78.8%. The “Therapeutic Disease index” value ([6]; 75 ppm) was 0.11, the “Therapeutic (%)control” value ([6]; 100 ppm) was 84.6% and the “Therapeutic Disease index” value ([6]; 100 ppm) was 0.08. The “Therapeutic (%)control” value ([6]; 150 ppm) was 100%, the “Therapeutic Disease index” value ([6]; 150 ppm) was 0 and the “Therapeutic (%)control” value ([6]; 200 ppm) was 98.1%. For the same compound, the “Therapeutic Disease index” value ([6]; 200 ppm) was 0.01, the “Therapeutic (%)control” value ([6]; 250 ppm) was 100% and the “Therapeutic Disease index” value ([6]; 250 ppm) was 0. The Disease index ([7]; 100 ppm) was 0.049, the “Protective effect (%)control” value ([7]; 100 ppm) was 88.4% and the Disease index ([7]; 200 ppm) was 0.011. For the same compound, the “Protective effect (%)control” value ([7]; 200 ppm) was 97.4%, the Disease index ([7]; 300 ppm) was 0 and the “Protective effect (%)control” value ([7]; 300 ppm) was 100%. For the same compound, the Disease index ([8]; 200 ppm, April 22) was 0, the “Protective (%)control” value ([8]; 200 ppm, April 22) was 100% and the Disease index ([8]; 200 ppm, April 29) was 0. The “Protective (%)control” value ([8]; 200 ppm, April 29) was 100%, the Disease index ([8]; 200 ppm, May 5) was 0.03 and the “Protective (%)control” value ([8]; 200 ppm, May 5) was 97.0%. For the same compound, the Disease index ([8]; 400 ppm, April 22) was 0, the “Protective (%)control” value ([8]; 400 ppm, April 22) was 100% and the Disease index ([8]; 400 ppm, April 29) was 0. The “Protective (%)control” value ([8]; 400 ppm, April 29) was 100%, the Disease index ([8]; 400 ppm, May 5) was 0 and the “Protective (%)control” value ([8]; 400 ppm, May 5) was 100%. For the same compound, the Disease index ([8]; 600 ppm, April 22) was 0, the “Protective (%)control” value ([8]; 600 ppm, April 22) was 100% and the Disease index ([8]; 600 ppm, April 29) was 0. For the same compound, the “Protective (%)control” value ([8]; 600 ppm, April 29) was 100%, the Disease index ([8]; 600 ppm, May 5) was 0 and the “Protective (%)control” value ([8]; 600 ppm, May 5) was 100%. For the same compound, the “Therapeutic effect (%)control” value ([9]; 100 ppm) was 63%, the “Therapeutic effect Disease index” value ([9]; 100 ppm) was 0.37 and the “Therapeutic effect (%)control” value ([9]; 150 ppm) was 74%. The “Therapeutic effect Disease index” value ([9]; 150 ppm) was 0.26, the “Protection (%)control” value ([10]; 75 ppm) was 92.5% and the “Protection Disease index” value ([10]; 75 ppm) was 0.03. The “Protection (%)control” value ([10]; 100 ppm) was 100%, the “Protection Disease index” value ([10]; 100 ppm) was 0 and the “Protection (%)control” value ([10]; 150 ppm) was 100%. The “Protection Disease index” value ([10]; 150 ppm) was 0, the “Protection (%)control” value ([10]; 200 ppm) was 100% and the “Protection Disease index” value ([10]; 200 ppm) was 0. For the same compound, the “Protection (%)control” value ([10]; 250 ppm) was 100% and the “Protection Disease index” value ([10]; 250 ppm) was 0.

For `COc1ccc(C(=CC(=O)N2CCOCC2)c2ccc(Cl)cc2)cc1OC` [Dimethomorph, reference compound], the “% Spore germination” value ([3]; 50 ppm, 25°C, after 24 hours) was 38.2%, the “Number of spores germinated” value ([3]; 50 ppm, 25°C, after 24 hours) was 208 and the “Number of ungerminated spores” value ([3]; 50 ppm, 25°C, after 24 hours) was 336. The inhibition at 50 ppm ([3]; Pseudoperonospora cubensis, 50 ppm, 25°C, after 24 hours, read-out: % Inhibition of spore) was 42.5%, the “Protective effect (%)control” value ([4]; 100 ppm) was 61% and the “Protective effect Disease index” value ([4]; 100 ppm) was 0.39. For the same compound, the “Protective effect (%)control” value ([4]; 150 ppm) was 79%, the “Protective effect Disease index” value ([4]; 150 ppm) was 0.21 and the “Therapeutic (%)control” value ([6]; 150 ppm) was 63.5%. The “Therapeutic Disease index” value ([6]; 150 ppm) was 0.19, the “Therapeutic effect (%)control” value ([9]; 100 ppm) was 2% and the “Therapeutic effect Disease index” value ([9]; 100 ppm) was 0.98. For the same compound, the “Therapeutic effect (%)control” value ([9]; 150 ppm) was 24%, the “Therapeutic effect Disease index” value ([9]; 150 ppm) was 0.76 and the “Protection (%)control” value ([10]; 150 ppm) was 100%. For the same compound, the “Protection Disease index” value ([10]; 150 ppm) was 0.

`COCC(=O)N(c1c(C)cccc1C)C(C)C(=O)OC` (stereo not drawn) [metalaxyl, reference compound] was tested, and the “Therapeutic effect (%)control” value ([1]; 500 ppm) was 40.0% and the “Protective effect/preventive (%)control” value ([2]; 500 ppm) was 60.0%.
